Target: T1, G9a (GST-mG9a) (Mus musculus, UniProt Q9Z148)
T1 sequence (Q9Z148 1-1263): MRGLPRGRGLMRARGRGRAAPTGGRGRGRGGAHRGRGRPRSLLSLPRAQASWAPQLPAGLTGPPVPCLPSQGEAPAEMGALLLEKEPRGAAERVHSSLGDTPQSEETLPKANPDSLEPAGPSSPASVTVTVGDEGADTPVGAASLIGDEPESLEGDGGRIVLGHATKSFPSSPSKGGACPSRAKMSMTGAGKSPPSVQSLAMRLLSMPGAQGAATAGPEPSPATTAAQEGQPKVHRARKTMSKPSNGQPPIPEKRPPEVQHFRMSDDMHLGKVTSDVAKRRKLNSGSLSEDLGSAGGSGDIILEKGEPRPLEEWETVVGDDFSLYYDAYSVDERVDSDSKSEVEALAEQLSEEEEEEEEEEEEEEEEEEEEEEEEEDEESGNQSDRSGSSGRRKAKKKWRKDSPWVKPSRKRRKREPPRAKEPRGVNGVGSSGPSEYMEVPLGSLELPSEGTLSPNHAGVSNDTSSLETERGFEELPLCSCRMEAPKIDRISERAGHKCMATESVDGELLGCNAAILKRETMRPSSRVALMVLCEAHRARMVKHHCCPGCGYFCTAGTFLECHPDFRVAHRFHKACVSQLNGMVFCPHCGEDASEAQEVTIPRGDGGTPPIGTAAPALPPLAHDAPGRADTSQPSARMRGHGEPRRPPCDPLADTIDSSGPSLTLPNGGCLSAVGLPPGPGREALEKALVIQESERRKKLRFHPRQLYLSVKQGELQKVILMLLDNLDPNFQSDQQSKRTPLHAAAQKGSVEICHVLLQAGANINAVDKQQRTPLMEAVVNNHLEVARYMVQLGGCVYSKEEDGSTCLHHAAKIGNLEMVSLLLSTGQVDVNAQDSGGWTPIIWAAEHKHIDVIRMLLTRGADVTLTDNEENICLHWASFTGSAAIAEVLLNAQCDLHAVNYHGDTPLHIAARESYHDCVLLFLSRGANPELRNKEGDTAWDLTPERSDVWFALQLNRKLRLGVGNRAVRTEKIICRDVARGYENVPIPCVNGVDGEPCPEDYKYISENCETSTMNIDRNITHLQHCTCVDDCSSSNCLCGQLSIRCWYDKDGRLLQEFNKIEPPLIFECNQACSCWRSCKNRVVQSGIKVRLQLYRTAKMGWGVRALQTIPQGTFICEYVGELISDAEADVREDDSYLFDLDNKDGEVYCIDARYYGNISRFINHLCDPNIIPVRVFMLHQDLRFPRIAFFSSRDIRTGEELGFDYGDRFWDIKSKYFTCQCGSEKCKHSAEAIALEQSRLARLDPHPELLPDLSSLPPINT
Assay: Assay for measuring histone methyltransferase activity using peptidyl MCA, inhibitor evaluation with G9a
Type: biochemical
Settings: IC50 for G9a, Ac-histone H3 (1-9)-MCA
Experimental: When G9a was adopted as a histone methyltransferase, the following method was used. 10 μL of 2×HMT buffer (100 mM Tris-HCl (pH 8.5), 20 mM MgCl2, 40 mM KCl, 20 mM 2-mercaptoethanol, 500 mM sucrose), 0.4 μL of a BSA solution (150 μg/mL), 2 μL of GST-mG9a (0, 0.5 μg/μL), 1 μL of gliotoxin (any of various concentrations) and 2.6 μL of distilled water were mixed and then incubated at room temperature for 1 hour. Then, 2 μL of SAM (10 mM) and 2 μL of a peptidyl MCA (Ac-histone H3 (1-9)-MCA) solution (0.6 mM) were added thereto, which was then incubated at 37° C. for 1 hour. Thereafter, 30 μL of a trypsin solution (20 mg/mL) was added thereto, followed by incubation at 37° C. for 15 minutes. Then, the fluorescence intensity of the solution was measured at an excitation wavelength (λex) of 390 nm and a fluorescence wavelength (λem) of 460 nm. The final concentration of GST-mG9a during the measurement of fluorescence intensity was 0.05 μg/μL. The results of the assay for measuring histone methyltransferase activity are shown in the middle panel of FIG. 18.
The rate of the inhibition of methylation by gliotoxin was calculated from the results in the left panel and the middle panel of FIG. 18. Specifically, the value (%) was calculated which was obtained by dividing “a value obtained by subtracting “the fluorescence intensity of AMC when peptidase was added but gliotoxin was not added” from “the fluorescence intensity of AMC when both peptidase and gliotoxin were added”” by “a value obtained by subtracting “the fluorescence intensity of AMC when peptidase was added but gliotoxin was not added” from “the fluorescence intensity of AMC when no peptidase or gliotoxin was added”” and multiplying the resultant value by 100. The rate (%) of the inhibition of methylation by gliotoxin is shown in the right panel of FIG. 18.
Specifically, the assay for measuring histone methyltransferase activity was carried out by the same method as the method using G9a […] in Example 8 except for using S-Adenosyl-L-homocysteine (SAH) in place of gliotoxin. SAH is a by-product of the methylation reaction and is known to inhibit histone methyltransferase in a negative feedback manner. […] The rate (%) of the inhibition of methylation by SAH was calculated from the results in the left panel of FIG. 19. The results are shown in the right panel of FIG. 19.
When G9a was adopted as a histone methyltransferase, the following method was used. […] Then, the fluorescence intensity of the solution was measured at an excitation wavelength (λex) of 330 nm and a fluorescence wavelength (λem) of 380 nm or at an excitation wavelength (λex) of 390 nm and a fluorescence wavelength (λem) of 460 nm. The final concentration of GST-mG9a during the measurement of fluorescence intensity was 0 μg/μL or 0.05 μg/μL.

With `CN1C(=O)[C@]23CC4=CC=C[C@H](O)[C@H]4N2C(=O)[C@@]1(CO)SS3` [gliotoxin] the IC50 (Example 8, AMC fluorescence λex 390 nm/λem 460 nm, FIG. 18) was 2.8 µM, the IC50 (Example 14, AMC fluorescence λex 390 nm/λem 460 nm, left panel of FIG. 27) was 1.8 µM and the IC50 (Example 14, peptidyl MCA fluorescence λex 330 nm/λem 380 nm, right panel of FIG. 27) was 2.8 µM.

Source: patent US9012166B2, “Method for assaying histone methylation enzyme activity” (Kyushu Institute of Technology, priority 2010, dated 2015)
